In series [1] the target is NAD(P)H dehydrogenase [quinone] 1 (Homo sapiens) (UniProt P15559). Kind of series: Substrate activity at recombinant human NQO1 assessed as enzyme activity by measuring oxidation of NADPH incubated for 5 mins measured per micromol of NADPH by NADPH recycling assay.
The test system of series [2] is A549. Kind of series: Antitumor activity against human A549 cells xenografted in BALB/c nude mouse assessed as tumor volume change at 30 mg/kg, ip administered for 21 days. As to conditions: time 21 day; call rule not given here. It is filed as functional. For orientation: Xenograft models place foreign cells or tissue in a host animal.
Series [3] relates to A549. Kind of series: Antitumor activity against human A549 cells xenografted in BALB/c nude mouse assessed as tumor inhibition rate at 30 mg/kg, ip administered for 21 days. The following applies: time 21 day. It is filed as functional. Also on record: scale not given: the % may be the effect or the level left.
Series [4] relates to A549. Kind of series: Cytotoxicity against human A549 cells assessed as growth inhibition measured after 72 hrs by MTT assay. The series is classed as functional. Also on record: scale not given: the % may be the effect or the level left.
The nature of series [5]: Stability of compound in human plasma assessed as compound remaining at 37 degree C measured after 24 hrs by HPLC analysis. It is filed as ADME, cell-free.
The nature of series [6]: Water solubility of compound by HPLC analysis. It is filed as physicochemical.
A short description of series [7]: Stability of compound in mouse plasma assessed as compound remaining at 37 degree C measured after 24 hrs by HPLC analysis. The series is classed as ADME, cell-free.
Series [8] is described as follows: Stability of compound in PBS at pH 4 to 9 assessed as compound remaining at 37 degree C measured after 24 hrs by HPLC analysis. It is filed as physicochemical. The following applies: buffer, pH 4, 24 h.
Series [9] is described as follows: Stability of compound in rat plasma assessed as compound remaining at 37 degree C measured after 24 hrs by HPLC analysis. It is filed as ADME, cell-free.
The test system of series [10] is A549. Kind of series: Antitumor activity against human A549 cells xenografted in BALB/c nude mouse assessed as fluorescence intensity at 30 mg/kg, ip administered for 21 days. As to conditions: time 21 day. It is filed as functional.
The nature of series [11]: Drug uptake in BALB/c nude mouse infected with human A549 cells at 5 mg/kg, iv measured upto 15 mins by fluorescence spectrophotometric analysis. The series is classed as ADME, organism-based. The following applies: in vivo, 0.25 h.
A short description of series [12]: Drug uptake in NQO1 rich human A549 cells at 10 uM incubated for 20 mins by confocal microscopy. The series is classed as ADME, cell-based. As to conditions: a549, 20 min.
Series [13] is described as follows: Drug uptake in NQO1-deficient human NCI-H596 cells at 10 uM incubated for 20 mins by confocal microscopy. It is filed as ADME, cell-based. The following applies: nci-h596, 20 min.

Here are results for ten molecules from ChEMBL document CHEMBL5053491, “Rational designed highly sensitive NQO1-activated near-infrared fluorescent probe combined with NQO1 substrates in vivo: An innovative strategy for NQO1-overexpressing cancer theranostics” (Eur J Med Chem, 2021).

The term solubility denotes the concentration that dissolves in the medium under given conditions.

Converted amounts (≈) assume the structure as drawn. Bounds are passed on as bounds.

NAD(P)H dehydrogenase [quinone] 1 (Homo sapiens), sequence (P15559 whole entry): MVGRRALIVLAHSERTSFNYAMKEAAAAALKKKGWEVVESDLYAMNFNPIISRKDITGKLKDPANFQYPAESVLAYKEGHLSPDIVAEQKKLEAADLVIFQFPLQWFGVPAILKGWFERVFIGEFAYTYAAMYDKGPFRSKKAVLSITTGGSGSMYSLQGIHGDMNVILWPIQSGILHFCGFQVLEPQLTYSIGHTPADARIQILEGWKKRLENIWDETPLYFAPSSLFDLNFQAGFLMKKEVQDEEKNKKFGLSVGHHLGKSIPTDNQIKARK

Consider `CC1=C(C)C(=O)C(C(C)(C)CC(=O)O)=C(C)C1=O`, for which the Activity in [1] is 1070 µmol/min.
`CC1(C)CCC2=C(O1)c1ccccc1C(=O)C2=O` [LAPACHONE]: the Activity in [2] came to 69.1%; in series [3], 67.7%.
As to `CC1=C(C(C)(C)CC(=O)N(C)c2ccc(COC(=O)N3c4ccc(N(C)C)cc4Sc4cc(N(C)C)ccc43)cc2)C(=O)c2ccccc2C1=O`, the figures for the Activity in series [4] and in series [10] were greater than 80% and 75.6%, respectively. Besides, the Stability result in [5], in series [7], in series [8] and in series [9] was “Stable” throughout. The molecule further yielded a solubility in series [6] of 6.5 µg/mL (≈ 9.25 µM). The Drug uptake entry in series [11] is recorded as “Active”; in series [12], “Active”; in [13] it was “Not Active”.
Take `O=c1[nH]cc(F)c(=O)[nH]1` [FLUOROURACIL]: the Activity in [10] came out at 75.7%.
In the case of `Cc1cc2c(cc1C)-c1oc(CN3CCN(C)CC3)c(C)c1C(=O)C2=O`, the Activity in series [2] amounted to 77%; in [3], 79.8%.
Take `CC1=C(CCC(=O)O)C(=O)c2ccccc2C1=O`: the Activity in series [1] is 1080 µmol/min.
For the molecule `CC1=C(C(C)(C)CC(=O)O)C(=O)c2ccccc2C1=O`, the Activity in [1] amounted to 1480 µmol/min.
Still for that read-out and setting: the value for `CC(C)(CC(=O)O)C1=CC(=O)c2ccccc2C1=O` was 1220 µmol/min.
Regarding `CC1=C(C)C(=O)C(C(C)(C)CC(=O)N(C)c2ccc(COC(=O)N3c4ccc(N(C)C)cc4Sc4cc(N(C)C)ccc43)cc2)=C(C)C1=O`, the Drug uptake result in series [11] was “Not Active”.
In the case of `O=C(O)CCC1=CC(=O)c2ccccc2C1=O`, in [1], the Activity came to 900 µmol/min.
